Measured values from US12247011B2, “Selective inhibitors of NLRP3 inflammasome” (NodThera Limited, priority 2017, dated 2025).

Test system: IL-1β release upon NLRP3 activation in peripheral blood mononuclear cells (PBMC)
Assay: PBMC IC50 Determination Assay
Assay type: cell-based
Conditions: Homo sapiens; LPS-primed PBMC, 30 min compound, stimulated with ATP (5 mM) or nigericin (10 μM) for 1 h; IL-1β ELISA; read-out: PBMC IC50
Procedure: PBMC IC50 Determination Assay
The compounds of the present disclosure were tested for their inhibitory activity against IL-1β release upon NLRP3 activation in peripheral blood mononuclear cells (PBMC).
Isolated cells were seeded into the wells of a 96-well plate and incubated for 3 h with lipopolysaccharide (LPS). Following medium exchange, the compounds of the present disclosure were added (a single compound per well) and the cells were incubated for 30 min. Next, the cells were stimulated either with ATP (5 mM) or nigericin (10 μM) for 1 h and the cell culture media from the wells were collected for further analysis.
The release of IL-1β into the media was determined by a quantitative detection of IL-1β in the media using an IL-1β enzyme-linked immunosorbent assay (ELISA) Ready-SET-Go!, eBioscience cat. […] Subsequently, plates were blocked with blocking buffer for 1 h at room temperature (rt) and after washing with a buffer (PBS with 0.05% Tween-20) incubated with protein standard and culture media. […] Plates were washed and incubated with HRP-streptavidin for 30 min at rt and washed again. The signal was developed after addition of 3,3,5,5-tetramethylbenzidine-peroxidase (TMB) until colour appeared and the reaction was stopped by 2 M H2SO4. A microplate spectrophotometer (BioTek) was used to detect signals with 450 nm. The detection range of IL-1β ELISA was 2-150 ng/ml.

SMILES	IC50
CC(C)OC(=O)C(Cc1ncccn1)OC(=O)N[C@H]1CCCC[C@@H]1C (relative stereo) [Compound 129, Propan-2-yl 2-{[(trans-2-methylcyclohexyl)carbamoyl]oxy}-3-(pyrimidin-2-yl)propanoate]	1 to 10 µM
CCOC(=O)COC(=O)Nc1c(F)cccc1F [Compound 2, Ethyl 2-{[(2,6-difluorophenyl)carbamoyl]oxy}acetate]	1 to 10 µM
CCOC(=O)COC(=O)Nc1c(Cl)cccc1Cl [Compound 3, Ethyl 2-{[(2,6-dichlorophenyl)carbamoyl]oxy}acetate]	0.1 to 1 µM
CCOC(=O)COC(=O)Nc1cccc2ccccc12 [Compound 4, Ethyl 2-{[(naphthalen-1-yl)carbamoyl]oxy}acetate]	1 to 10 µM
CCOC(=O)COC(=O)Nc1cccc2c1OC(C)(C)C2 [Compound 5, Ethyl 2-{[(2,2-dimethyl-2,3-dihydro-1-benzofuran-7-yl)carbamoyl]oxy}acetate]	> 10 µM
CCOC(=O)C(COC)OC(=O)Nc1c2c(cc3c1CCC3)CCC2 (stereo not drawn) [Compound 6, Ethyl 2-{[(1,2,3,5,6,7-hexahydro-s-indacen-4-yl)carbamoyl]oxy}-3-methoxypropanoate]	0.01 to 0.1 µM
CCOC(=O)COC(=O)Nc1cc(C(F)(F)F)ccc1F [Compound 7, Ethyl 2-({[2-fluoro-5-(trifluoromethyl)phenyl]carbamoyl}oxy)acetate]	1 to 10 µM
CCOC(=O)COC(=O)Nc1c(C)cccc1C [Compound 8, Ethyl 2-{[(2,6-dimethylphenyl)carbamoyl]oxy}acetate]	0.1 to 1 µM
CCOC(=O)COC(=O)Nc1c(CC)cccc1CC [Compound 9, Ethyl 2-{[(2,6-diethylphenyl)carbamoyl]oxy}acetate]	0.1 to 1 µM
CCOC(=O)COC(=O)Nc1c(C)cccc1Cl [Compound 10]	1 to 10 µM
CCOC(=O)COC(=O)Nc1ccccc1C#N [Compound 11, Ethyl 2-{[(2-cyanophenyl)carbamoyl]oxy}acetate]	1 to 10 µM
CCOC(=O)C(Cc1cccnc1)OC(=O)Nc1c2c(cc3c1CCC3)CCC2 (stereo not drawn) [Compound 12, Ethyl 2-{[(1,2,3,5,6,7-hexahydro-s-indacen-4-yl)carbamoyl]oxy}-3-(pyridin-3-yl)propanoate]	0.01 to 0.1 µM
CCOC(=O)COC(=O)Nc1ccccc1C(C)(C)C [Compound 13, Ethyl 2-{[(2-tert-butylphenyl)carbamoyl]oxy}acetate]	1 to 10 µM
CCOC(=O)COC(=O)Nc1c(C)cc(C)cc1C [Compound 14, Ethyl 2-((mesitylcarbamoyl)oxy)acetate]	1 to 10 µM
CCOC(=O)COC(=O)Nc1ccccc1C(C)C [Compound 15, Ethyl 2-(((2-isopropylphenyl)carbamoyl)oxy)acetate]	1 to 10 µM
CCOC(=O)COC(=O)Nc1c(C)cccc1CC [Compound 16, Ethyl 2-(((2-ethyl-6-methylphenyl)carbamoyl)oxy)acetate]	0.1 to 1 µM
CCOC(=O)C(Cc1ccccc1)OC(=O)Nc1c2c(cc3c1CCC3)CCC2 (stereo not drawn) [Compound 17, Ethyl 2-(((1,2,3,5,6,7-hexahydro-s-indacen-4-yl)carbamoyl)oxy)-3-phenylpropanoate]	0.1 to 1 µM
CCOC(=O)C(Cc1ccccn1)OC(=O)Nc1c2c(cc3c1CCC3)CCC2 (stereo not drawn) [Compound 18, Ethyl 2-(((1,2,3,5,6,7-hexahydro-s-indacen-4-yl)carbamoyl)oxy)-3-(pyridin-2-yl)propanoate]	0.1 to 1 µM

SMILES	IC50
CCOC(=O)[C@@H](C)OC(=O)Nc1c2c(cc3c1CCC3)CCC2 [Compound 19, Ethyl (2R)-2-{[(1,2,3,5,6,7-hexahydro-s-indacen-4-yl)carbamoyl]oxy}propanoate]	1 to 10 µM
CC(C)OC(=O)COC(=O)Nc1c2c(cc3c1CCC3)CCC2 [Compound 20, Propan-2-yl 2-{[(1,2,3,5,6,7-hexahydro-s-indacen-4-yl)carbamoyl]oxy}acetate]	0.1 to 1 µM
CCCOC(=O)COC(=O)Nc1c2c(cc3c1CCC3)CCC2 [Compound 21]	0.1 to 1 µM
O=C(COC(=O)Nc1c2c(cc3c1CCC3)CCC2)OCC1CC1 [Compound 22, Cyclopropylmethyl 2-{[(1,2,3,5,6,7-hexahydro-s-indacen-4-yl)carbamoyl]oxy}acetate]	0.1 to 1 µM
O=C(COC(=O)Nc1c2c(cc3c1CCC3)CCC2)OC1CCC1 [Compound 23, Cyclobutyl 2-{[(1,2,3,5,6,7-hexahydro-s-indacen-4-yl)carbamoyl]oxy}acetate]	0.1 to 1 µM
CC(C)COC(=O)COC(=O)Nc1c2c(cc3c1CCC3)CCC2 [Compound 24, 2-methylpropyl 2-{[(1,2,3,5,6,7-hexahydro-s-indacen-4-yl)carbamoyl]oxy}acetate]	0.1 to 1 µM
CCOC(=O)[C@@H](Cc1ccc(C#N)cc1)OC(=O)Nc1c2c(cc3c1CCC3)CCC2 [Compound 25, Ethyl 3-(4-cyanophenyl)-2-{[(1,2,3,5,6,7-hexahydro-s-indacen-4-yl)carbamoyl]oxy}propanoate]	0.1 to 1 µM
O=C(O)COC(=O)Nc1c2c(cc3c1CCC3)CCC2 [Compound 27, 2-{[(1,2,3,5,6,7-Hexahydro-s-indacen-4-yl)carbamoyl]oxy}acetic acid]	1 to 10 µM
CCOC(=O)COC(=O)Nc1c(CC)cc(C)cc1CC [Compound 28, Ethyl 2-{[(2,6-diethyl-4-methylphenyl)carbamoyl]oxy}acetate]	1 to 10 µM
COC(=O)COC(=O)Nc1c2c(cc3c1CCC3)CCC2 [Compound 29, Methyl 2-{[(1,2,3,5,6,7-hexahydro-s-indacen-4-yl)carbamoyl]oxy}acetate]	1 to 10 µM
CCOC(=O)[C@@H](CCc1ccccc1)OC(=O)Nc1c2c(cc3c1CCC3)CCC2 [Compound 30, Ethyl (2R)-2-{[(1,2,3,5,6,7-hexahydro-s-indacen-4-yl)carbamoyl]oxy}-4-phenylbutanoate]	0.1 to 1 µM
O=C(COC(=O)Nc1c2c(cc3c1CCC3)CCC2)OC1CCCC1 [Compound 32, Cyclopentyl 2-{[(1,2,3,5,6,7-hexahydro-s-indacen-4-yl)carbamoyl]oxy}acetate]	0.1 to 1 µM
CCOC(=O)C(Cn1ccnc1)OC(=O)Nc1c2c(cc3c1CCC3)CCC2 (stereo not drawn) [Compound 33, Ethyl 2-{[(1,2,3,5,6,7-hexahydro-s-indacen-4-yl)carbamoyl]oxy}-3-(1H-imidazol-1-yl)propanoate]	0.1 to 1 µM
CCOC(=O)COC(=O)Nc1c(C(C)C)cccc1C(C)C [Compound 34, Ethyl 2-({[2,6-bis(propan-2-yl)phenyl]carbamoyl}oxy)acetate]	1 to 10 µM
CCOC(=O)COC(=O)Nc1cc(C(F)(F)F)ccc1Cl [Compound 35, Ethyl 2-({[2-chloro-5-(trifluoromethyl)phenyl]carbamoyl}oxy)acetate]	> 10 µM
CCOC(=O)COC(=O)Nc1cc(C)ccc1C [Compound 37, Ethyl 2-{[(2,5-dimethylphenyl)carbamoyl]oxy}acetate]	0.1 to 1 µM
COCC(OC(=O)Nc1c2c(cc3c1CCC3)CCC2)C(=O)O (stereo not drawn) [Compound 38, 2-{[(1,2,3,5,6,7-hexahydro-s-indacen-4-yl)carbamoyl]oxy}-3-methoxypropanoic acid]	1 to 10 µM
O=C(COC(=O)Nc1c2c(cc3c1CCC3)CCC2)OC1CC1 [Compound 39, cyclopropyl 2-{[(1,2,3,5,6,7-hexahydro-s-indacen-4-yl)carbamoyl]oxy}acetate]	1 to 10 µM
